From patent US9079970B2, “Methods and compositions for specific modulation of MCL-1” (Dana Farber Cancer Institute, Inc., priority 2008, dated 2015)
“Also recorded” adds a separate entry of the source. Where a SMILES comes first, the peptide text is derived from it. Bridges are numbered along the chain shown (N, C = ends). [ ]: non-standard residue; d: D form. The star is where a group is joined. S5 = C=CCCC[C@](C)(N)C(=O)O; Nle = CCCC[C@H](N)C(=O)O; Cbz = O=C(OCc1ccccc1)*; CH2F = FC*

B1: FasL: death receptor agonist, extrinsic pathway activator (protein, UniProt P48023 130-281, looked up)
Tumor necrosis factor ligand …: QIGHPSPPPEKKELRKVAHLTGKSNSRSMPLEWEDTYGIVLLSGVKYKKGGLVINETGLYFVYSKVYFRGQSCNNLPLSHKVYMRNSKYPQDLVMMEGKMMSYCTTGQMWARSSYLGAVFNLTSADHLYVNVSELSLVNFEESQTFFGLYKL
B2: TRAIL: death receptor agonist, extrinsic pathway activator (protein, UniProt P50591 1-281, looked up)
Tumor necrosis factor ligand …: MAMMEVQGGPSLGQTCVLIVIFTVLLQSLCVAVTYVYFTNELKQMQDKYSKSGIACFLKEDDSYWDPNDEESMNSPCWQVKWQLRQLVRKMILRTSEETISTVQEKQQNISPLVRERGPQRVAAHITGTRGRSNTLSSPNSKNEKALGRKINSWESSRSGHSFLSNLHLRNGELVIHEKGFYYIYSQTYFRFQEEIKENTKNDKQMVQYIYKYTSYPDPILLMKSARNSCWSKDAEYGLYSIYQGGIFELKENDRIFVSVTNEHLIDMDHEASFFGAFLVG

How the values were obtained:
[1] = target: recombinant BCL-XLΔC (Homo sapiens, UniProt Q07817); assay: Fluorescence polarization direct binding of FITC-SAHBs to BCL-XLΔC; conditions: FPA
Experimental: (§1) Binding assays were performed as previously described (Pitter et al., Methods Enzymol 446, 387 (2008). Briefly, FITC-SAHB (50 nM) was added to serial dilutions of FPLC-purified recombinant protein in binding buffer (50 mM Tris, 100 mM NaCl, pH 8.0). For competition assays, serial dilutions of acetylated MCL-1 SAHBs were mixed with FITC-BAK SAHB (25 nM), followed by addition of MCL-1ΔNΔC (100 nM) diluted in binding buffer (50 mM Tris, 100 mM NaCl, pH 8.0). Multiwell plates were incubated in the dark at room temperature until equilibrium was reached and fluorescence polarization (mP units) was measured by microplate reader (SpectraMax, Molecular Devices). For direct binding experiments, dissociation constants (KD) were calculated by nonlinear regression analysis of dose-response curves using Prism software (Graphpad). For competition experiments, Ki values were determined by nonlinear regression analysis of dose-response curves using a one-site competition model.
(§2) Recombinant carboxy-terminal deleted anti-apoptotic proteins were expressed using the pGEX-4T vector, and purified as described for rMCL-1. The purified proteins were incubated with FITC-SAHBs, and binding affinities were analyzed by fluorescence polarization assay as described above. […] Optionally, design and optimization of tailored SAHB compounds for anti-apoptotic targeting also employed computational modeling.

[2] = system: MCL-1ΔNΔC, BCL-2ΔC, BCL-XLΔC, BCL-wΔC and BFL-1/A1ΔC; assay: FPA selectivity across panel of anti-apoptotic proteins; format: binding; conditions: FPA against anti-apoptotic panel
Experimental: as §1
as §2, with “Compounds that bound MCL-1 with high affinity were analyzed for MCL-1 selectivity by measuring SAHB affinities for recombinant BCL-XLΔC, BCL-WΔC and BFL-1/A1ΔC (FIG. 8B). Recombinant” for “Recombinant”
After the experiments set forth above, further members of the library of stabilized alpha-helices of BCL-2 domains (SAHBs) modeled after the BH3 domains of BCL-2 family proteins were generated in order to identify potent and selective inhibitors of MCL-1. The native alpha-helical structure of BH3 domains was reinforced by incorporating non-natural amino acids containing olefin tethers at the (i, i+4) positions of the non-interacting face, followed by ruthenium catalyzed olefin metathesis to yield a panel of stapled BH3 domains (FIG. 7). Fluorescence polarization assays (FPA) were performed to measure the binding affinity of fluorescently labeled SAHBs for recombinant human MCL-1ΔNΔC (amino acids 172-320), a deletion construct that contains the BH3-binding pocket and affords enhanced expression, purity, and stability. […] To identify MCL-1-selective SAHBs, we first screened for recombinant BCL-XLΔC binding, which eliminated PUMA, BID, BIM, BOK, BAX, and BAK SAHBs and then for recombinant BFL1/A1ΔC binding, which eliminated NOXA SAHB.

[3] = system: Jurkat T-cell leukemia cells; assay: Cell viability by MTT assay, Jurkat; format: cell-based
Experimental: (§3) For viability testing, OPM2 and Jurkat cells (4×10^4) were treated with the indicated agents in Opti-MEM media at 37° C. in a final volume of 100 μL. Cell viability was measured at 24 hours by MTT assay, for which cells were incubated with 20 μL thiazolyl blue tetrazolium bromide (5 mg/mL in DPBS) at 37° C. for 4 hours, the precipitate solubilized with 0.1 N HCl isopropanol (100 μL), and absorbance measured at 570 nm and 650 nm.

[4] = system: OPM2 multiple myeloma cells; assay: Cell viability by MTT assay, OPM2; format: cell-based; conditions: MTT at 24 hours
Experimental: as §3, with “OPM2 multiple myeloma cells and Jurkat T-cell leukemia were passaged and maintained in RPMI 1640 medium (Invitrogen) supplemented with 10% fetal bovine serum, 100 U/mL penicillin, 100 μg/mL streptomycin, 2 mM L-glutamine, 50 mM HEPES and 50 μM β-mercaptoethanol. For” for “For”

Sequence of recombinant BCL-XLΔC (Q07817 1-209, stated change not applied): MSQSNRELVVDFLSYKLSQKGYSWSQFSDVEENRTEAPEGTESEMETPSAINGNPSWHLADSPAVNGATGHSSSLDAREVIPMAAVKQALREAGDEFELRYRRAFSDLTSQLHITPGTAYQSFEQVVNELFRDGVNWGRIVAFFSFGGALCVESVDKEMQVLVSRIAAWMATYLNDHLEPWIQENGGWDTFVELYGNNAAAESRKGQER

| Molecule | BCL-XL binding [1] | binding selectivity among anti-apoptotic proteins [2] | also measured |
| --- | --- | --- | --- |
| CCCC[C@H](NC(=O)[C@]1(C)CCCC=CCCC[C@](C)(NC(=O)[C@H](C)NC(=O)[C@H](CC(C)C)NC(=O)[C@H](Cc2c[nH]cn2)NC(=O)[C@H](CCCNC(=N)N)NC(=O)[C@H](C)NC(=O)[C@@H](NC(=O)[C@H](CC(N)=O)NC(=O)[C@H](CCCNC(=N)N)NC(=O)[C@@H](NC(=O)[C@@H](NC(=O)[C@@H](N)CC(=O)O)[C@@H](C)CC)[C@@H](C)CC)[C@@H](C)CC)C(=O)N[C@@H](C(C)C)C(=O)NCC(=O)N[C@@H](CC(=O)O)C(=O)N1)C(=O)N[C@@H](CC(=O)O)C(=O)N[C@@H](CCCNC(=N)N)C(=O)N[C@@H](CO)C(=O)N[C@H](C(=O)N[C@@H](CCCNC(=N)N)C(=O)N[C@@H](CCCNC(=N)N)C(N)=O)[C@@H](C)CC [BID SAHB] (H-DIIRNIARHLA[S5]VGD[S5][Nle]DRSIRR-NH2; staple 12-16; C-terminus assumed) | eliminated | – | – |
| CCCC[C@H](NC(=O)[C@H](CCC(=O)O)NC(=O)[C@H](CC(C)C)NC(=O)[C@]1(C)CCCC=CCCC[C@](C)(NC(=O)[C@H](CC(C)C)NC(=O)[C@H](CC(C)C)NC(=O)[C@@H](NC(=O)[C@H](C)NC(=O)[C@H](CO)NC(=O)[C@@H](NC(=O)[C@H](CCC(=O)O)NC(=O)[C@H](C)NC(=O)[C@H](CC(C)C)NC(=O)[C@@H](N)CCCNC(=N)N)C(C)C)C(C)C)C(=O)N[C@@H](CC(C)C)C(=O)NCC(=O)N[C@@H](CC(=O)O)C(=O)N1)C(=O)N[C@H](C(=O)N[C@@H](CCCNC(=N)N)C(N)=O)[C@@H](C)CC [BOK SAHB] (H-RLAEVSAVLL[S5]LGD[S5]LE[Nle]IR-NH2; staple 11-15; C-terminus assumed) | eliminated | significant preference for MCL-1 over the other anti-apoptotics | – |
| CC(NC(=O)C(NC(=O)OCc1ccccc1)C(C)C)C(=O)NC(CC(=O)O)C(=O)CF (stereo not drawn) [z-VAD, reference compound] (Cbz-Val-Ala-Asp-CH2F; configuration not given here) | – | – | effect of pan-caspase inhibitor on MCL-1 SAHBD-induced sensitization ([3]; z-VAD 50 μM with MCL-1 SAHBD plus TRAIL/FasL, Jurkat and OPM2 cells): completely abrogated the negative effects on cell viability |
| CC[C@H](C)[C@@H]1NC(=O)[C@@](C)(NC(=O)[C@H](C)NC(=O)[C@H](CC(C)C)NC(=O)[C@H](CCC(N)=O)NC(=O)[C@H](CCCNC(=N)N)NC(=O)CNC(=O)[C@@H](NC(=O)[C@@H](N)CCC(N)=O)C(C)C)CCCC=CCCC[C@@](C)(C(=O)N[C@H](C(=O)N[C@@H](CC(N)=O)C(=O)N[C@@H](CCCNC(=N)N)C(=O)N[C@@H](CCCNC(=N)N)C(=O)N[C@@H](Cc2ccc(O)cc2)C(=O)N[C@@H](CC(=O)O)C(N)=O)[C@@H](C)CC)NC(=O)[C@H](CC(=O)O)NC(=O)CNC1=O [BAK SAHB] (H-QVGRQLA[S5]IGD[S5]INRRYD-NH2; staple 8-12; C-terminus assumed) | eliminated | high affinity pan-anti-apoptotic binders | – |
| LEVESXTQLXRFGDKLNFRQKL [NOXA SAHBB] | – | binds MCL-1ΔNΔC exclusively; also recorded: potent and exclusive MCL-1ΔNΔC binding activity | sensitization of Jurkat cells to FasL ([3]; combined with low dose FasL, MTT at 24 hours): behaved identically to MCL-1 SAHBD; also recorded: sensitized the apoptotic response of Jurkat cells to TRAIL and FasL; sensitization of Jurkat cells to TRAIL ([3]; combined with low dose TRAIL, MTT at 24 hours): behaved identically to MCL-1 SAHBD; also recorded: sensitized the apoptotic response of Jurkat cells to TRAIL and FasL |
| CCCC[C@@H]1NC(=O)[C@@](C)(NC(=O)[C@H](CCCNC(=N)N)NC(=O)[C@H](CC(C)C)NC(=O)[C@H](CCC(N)=O)NC(=O)[C@H](C)NC(=O)CNC(=O)[C@@H](NC(=O)[C@H](CCC(=O)O)NC(=O)[C@H](CCCNC(=N)N)NC(=O)[C@H](C)NC(=O)[C@H](Cc2c[nH]c3ccccc23)NC(=O)[C@@H](N)CCC(N)=O)[C@@H](C)CC)CCCC=CCCC[C@@](C)(C(=O)N[C@@H](CC(C)C)C(=O)N[C@@H](CC(N)=O)C(=O)N[C@@H](C)C(=O)N[C@@H](CCC(N)=O)C(=O)N[C@@H](Cc2ccc(O)cc2)C(N)=O)NC(=O)[C@H](CC(=O)O)NC(=O)[C@H](C)NC1=O [PUMA SAHB] (H-QWAREIGAQLR[S5][Nle]AD[S5]LNAQY-NH2; staple 12-16; C-terminus assumed) | eliminated | – | – |
| CC[C@H](C)[C@H](N)C(=O)N[C@@H](Cc1c[nH]c2ccccc12)C(=O)N[C@H](C(=O)N[C@@H](C)C(=O)N[C@@H](CCC(N)=O)C(=O)N[C@@H](CCC(=O)O)C(=O)N[C@@H](CC(C)C)C(=O)N[C@@H](CCCNC(=N)N)C(=O)N[C@@]1(C)CCCC=CCCC[C@@](C)(C(=O)N[C@@H](Cc2ccccc2)C(=O)N[C@@H](CC(N)=O)C(=O)N[C@@H](C)C(=O)N[C@@H](Cc2ccc(O)cc2)C(=O)N[C@@H](Cc2ccc(O)cc2)C(=O)N[C@@H](C)C(=O)N[C@@H](CCCNC(=N)N)C(=O)N[C@@H](CCCNC(=N)N)C(N)=O)NC(=O)[C@H](CC(=O)O)NC(=O)CNC(=O)[C@H]([C@@H](C)CC)NC1=O)[C@@H](C)CC [BIM SAHB] | eliminated | pan-anti-apoptotic binder | – |
| CC[C@H](C)[C@@H]1NC(=O)[C@@](C)(NC(=O)[C@H](CCCCN)NC(=O)[C@H](CC(C)C)NC(=O)[C@H](CO)NC(=O)[C@H](CCC(=O)O)NC(=O)[C@H](CO)NC(=O)[C@H](CC(C)C)NC(=O)[C@H](CCCCN)NC(=O)[C@H](CCCCN)NC(=O)[C@@H](NC(=O)[C@H](CO)NC(=O)[C@H](C)N)[C@@H](C)O)CCCC=CCCC[C@@](C)(C(=O)N[C@@H](CC(C)C)C(=O)N[C@@H](CC(=O)O)C(=O)N[C@@H](CO)C(=O)N[C@@H](CC(N)=O)C(N)=O)NC(=O)[C@H](CC(=O)O)NC(=O)CNC1=O [BAX SAHB] (H-ASTKKLSESLK[S5]IGD[S5]LDSN-NH2; staple 12-16; C-terminus assumed) | eliminated | – | – |
| B1 | – | – | OPM2 cell viability, single agent [4]: sensitive to TRAIL but not FasL; also recorded: only Jurkat cells were sensitive to FasL; Jurkat cell viability, single agent ([3]; MTT at 24 hours): dose-responsive cytotoxicity; also recorded: only Jurkat cells were sensitive to FasL |
| B2 | – | – | OPM2 cell viability, single agent [4]: sensitive to TRAIL; also recorded: induced apoptosis; Jurkat cell viability, single agent ([3]; MTT at 24 hours): dose-responsive cytotoxicity; also recorded: induced apoptosis |
